Laboratory results published in patent US11807644B2 (PMV Pharmaceuticals, Inc., priority 2020, dated 2023).

The molecules below were run against T1, recombinant His-tag Y220C p53 DBD protein (Homo sapiens, UniProt P04637, Y220C) (assay: In vitro DNA binding activity assay (TR-FRET): binding of His-tag Y220C p53 DBD to biotin-labeled consensus DNA). Conditions: SC150 = concentration to increase DNA binding by […], His-tag Y220C p53 DBD, biotin-labeled consensus DNA.
T1 construct: recombinant His-tag Y220C p53 DBD protein (amino acids #˜94-312)
Format: biochemical

Row | SMILES | Y220C SC150 (μM)
1 | COC1CCCC1n1ccc(C(=O)NCc2nc(-c3cc4c(N[C@@H]5CCN(C)C[C@@H]5F)cccc4n3CC(F)(F)F)no2)c1 (stereo in doubt) [Compound 364B, N-{[3-(4-{[(3S,4R)-3-fluoro-1-methylpiperidin-4-yl]amino}-1-(2,2,2-trifluoroethyl)-1H-indol-2-yl)-1,2,4-oxadiazol-5-yl]methyl}-1-[(1R,2S)-2-methoxycyclopentyl]-1H-pyrrole-3-carboxamide] | * (* = 0 μM ≤ SC150 < 0.1 μM)
2 | Cc1cc(C(=O)NCc2nc(-c3cc4c(N[C@@H]5CCN(C)C[C@@H]5F)cccc4n3CC(F)(F)F)no2)cn1C [Compound 219B, N-{[3-(4-{[(3S,4R)-3-fluoro-1-methylpiperidin-4-yl]amino}-1-(2,2,2-trifluoroethyl)-1H-indol-2-yl)-1,2,4-oxadiazol-5-yl]methyl}-1,5-dimethyl-1H-pyrrole-3-carboxamide] | * (* = 0 μM ≤ SC150 < 0.1 μM)
3 | CC(C)(C)n1ccc(C(=O)NCc2nc(-c3cc4c(N[C@@H]5CCCC[C@H]5F)cccc4n3CC(F)(F)F)no2)c1 (racemic) [Compound 340B] | ** (** = 0.1 μM ≤ SC150 < 0.5 μM)
4 | CN1CCC(Nc2cccc3c2cc(-c2noc(CNC(=O)[C@@H]4C[C@H]4F)n2)n3CC(F)(F)F)CC1 (racemic) [Compound 145B, (1S,2R)-2-fluoro-N-[(3-{4-[(1-methylpiperidin-4-yl)amino]-1-(2,2,2-trifluoroethyl)-1H-indol-2-yl}-1,2,4-oxadiazol-5-yl)methyl]cyclopropane-1-carboxamide] | * (* = 0 μM ≤ SC150 < 0.1 μM)
5 | CC(C)(C)n1ccc(C(=O)NCc2nc(-c3cc4c(N[C@H]5CCOC[C@H]5F)cccc4n3CC(F)(F)F)no2)c1 [Compound 492B, 1-tert-butyl-N-{[3-(4-{[(3S,4S)-3-fluorooxan-4-yl]amino}-1-(2,2,2-trifluoroethyl)-1H-indol-2-yl)-1,2,4-oxadiazol-5-yl]methyl}-1H-pyrrole-3-carboxamide] | * (* = 0 μM ≤ SC150 < 0.1 μM)
6 | Cc1cscc1C(=O)NCc1nc(-c2cc3c(N[C@@H]4CCN(C)C[C@@H]4F)cccc3n2CC(F)(F)F)no1 [Compound 209B, N-{[3-(4-{[(3S,4R)-3-fluoro-1-methylpiperidin-4-yl]amino}-1-(2,2,2-trifluoroethyl)-1H-indol-2-yl)-1,2,4-oxadiazol-5-yl]methyl}-4-methylthiophene-3-carboxamide] | * (* = 0 μM ≤ SC150 < 0.1 μM)
7 | CN1CC[C@@H](Nc2cccc3c2cc(-c2noc(C(=O)NCc4cnn(C)c4)n2)n3CC(F)(F)F)[C@@H](F)C1 [Compound 546B, 3-(4-{[(3S,4R)-3-fluoro-1-methylpiperidin-4-yl]amino}-1-(2,2,2-trifluoroethyl)-1H-indol-2-yl)-N-[(1-methyl-1H-pyrazol-4-yl)methyl]-1,2,4-oxadiazole-5-carboxamide] | ** (** = 0.1 μM ≤ SC150 < 0.5 μM)
8 | F[C@H]1CNCC[C@H]1Nc1cccc2c1cc(-c1noc(CNc3ccn[nH]3)n1)n2CC(F)(F)F [Compound 214B, N-[(3S,4R)-3-fluoropiperidin-4-yl]-2-(5-{[(1H-pyrazol-5-yl)amino]methyl}-1,2,4-oxadiazol-3-yl)-1-(2,2,2-trifluoroethyl)-1H-indol-4-amine] | * (* = 0 μM ≤ SC150 < 0.1 μM)
9 | CCN1CC[C@@H](Nc2cccc3c2cc(-c2noc(CNC(=O)c4ccn(CCOC)c4)n2)n3CC(F)(F)F)[C@@H](F)C1 [Compound 272B, N-{[3-(4-{[(3S,4R)-1-ethyl-3-fluoropiperidin-4-yl]amino}-1-(2,2,2-trifluoroethyl)-1H-indol-2-yl)-1,2,4-oxadiazol-5-yl]methyl}-1-(2-methoxyethyl)-1H-pyrrole-3-carboxamide] | * (* = 0 μM ≤ SC150 < 0.1 μM)
10 | CN1CC[C@@H](Nc2cccc3c2cc(-c2noc(CNC(=O)[C@@H]4CC4(C)C)n2)n3CC(F)(F)F)[C@@H](F)C1 [Compound 239B, (1R)-N-{[3-(4-{[(3S,4R)-3-fluoro-1-methylpiperidin-4-yl]amino}-1-(2,2,2-trifluoroethyl)-1H-indol-2-yl)-1,2,4-oxadiazol-5-yl]methyl}-2,2-dimethylcyclopropane-1-carboxamide] | * (* = 0 μM ≤ SC150 < 0.1 μM)
11 | CC(C)(C)n1ccc(C(=O)NCc2nc(-c3cc4c(N[C@@H]5CCNC[C@@H]5F)cccc4n3CC(F)(F)F)no2)c1 [Compound 502B, 1-tert-butyl-N-{[3-(4-{[(3S,4R)-3-fluoropiperidin-4-yl]amino}-1-(2,2,2-trifluoroethyl)-1H-indol-2-yl)-1,2,4-oxadiazol-5-yl]methyl}-1H-pyrrole-3-carboxamide] | * (* = 0 μM ≤ SC150 < 0.1 μM)
12 | CN1CC[C@@H](Nc2cccc3c2cc(-c2noc(CNC(=O)c4cc(C(C)(C)C)on4)n2)n3CC(F)(F)F)[C@@H](F)C1 [Compound 543B, 5-tert-butyl-N-{[3-(4-{[(3S,4R)-3-fluoro-1-methylpiperidin-4-yl]amino}-1-(2,2,2-trifluoroethyl)-1H-indol-2-yl)-1,2,4-oxadiazol-5-yl]methyl}-1,2-oxazole-3-carboxamide] | * (* = 0 μM ≤ SC150 < 0.1 μM)
13 | CN1CC[C@@H](Nc2cccc3c2cc(-c2noc(CNC(=O)c4csc(C5(C)CCOCC5)n4)n2)n3CC(F)(F)F)[C@@H](F)C1 [Compound 474B, N-{[3-(4-{[(3S,4R)-3-fluoro-1-methylpiperidin-4-yl]amino}-1-(2,2,2-trifluoroethyl)-1H-indol-2-yl)-1,2,4-oxadiazol-5-yl]methyl}-2-(4-methyloxan-4-yl)-1,3-thiazole-4-carboxamide] | * (* = 0 μM ≤ SC150 < 0.1 μM)
14 | CN1CC[C@@H](Nc2cccc3c2cc(-c2cc(CNC(=O)c4ccn(C(C)(C)C)c4)on2)n3CC(F)(F)F)[C@@H](F)C1 [Compound 553B, 1-tert-butyl-N-{[3-(4-{[(3S,4R)-3-fluoro-1-methylpiperidin-4-yl]amino}-1-(2,2,2-trifluoroethyl)-1H-indol-2-yl)-1,2-oxazol-5-yl]methyl}-1H-pyrrole-3-carboxamide] | * (* = 0 μM ≤ SC150 < 0.1 μM)
15 | CN1CC[C@@H](Nc2cccc3c2cc(-c2noc(CNC(=O)c4ccn(C5(C)CCOCC5)c4)n2)n3CC(F)(F)F)[C@@H](F)C1 [Compound 371B, N-{[3-(4-{[(3S,4R)-3-fluoro-1-methylpiperidin-4-yl]amino}-1-(2,2,2-trifluoroethyl)-1H-indol-2-yl)-1,2,4-oxadiazol-5-yl]methyl}-1-(4-methyloxan-4-yl)-1H-pyrrole-3-carboxamide] | * (* = 0 μM ≤ SC150 < 0.1 μM)
16 | CCn1ccc(C(=O)NCc2nc(-c3cc4c(N[C@H]5CCN(C)C[C@H]5F)cccc4n3CC(F)(F)F)no2)c1 [Compound 187B, 1-ethyl-N-{[3-(4-{[(3R,4S)-3-fluoro-1-methylpiperidin-4-yl]amino}-1-(2,2,2-trifluoroethyl)-1H-indol-2-yl)-1,2,4-oxadiazol-5-yl]methyl}-1H-pyrrole-3-carboxamide] | * (* = 0 μM ≤ SC150 < 0.1 μM)
17 | COc1ccccc1C(=O)NCc1nnc(-c2cc3c(N[C@H]4CCN(C)C[C@H]4F)cccc3n2CC(F)(F)F)o1 (racemic) [Compound 115B, (+/−)-N-{[5-(4-{[(3R,4S)-3-fluoro-1-methylpiperidin-4-yl]amino}-1-(2,2,2-trifluoroethyl)-1H-indol-2-yl)-1,3,4-oxadiazol-2-yl]methyl}-2-methoxybenzamide] | ** (** = 0.1 μM ≤ SC150 < 0.5 μM)
18 | CN1CC[C@@H](Nc2cccc3c2cc(-c2nnc(CNC(=O)OCc4ccccc4)s2)n3CC(F)(F)F)[C@@H](F)C1 (racemic) [Compound 44B, (+/−)-benzyl N-{[5-(4-{[(3R,4S)-3-fluoro-1-methylpiperidin-4-yl]amino}-1-(2,2,2-trifluoroethyl)-1H-indol-2-yl)-1,3,4-thiadiazol-2-yl]methyl}carbamate] | * (* = 0 μM ≤ SC150 < 0.1 μM)
19 | CN1CC[C@@H](Nc2cccc3c2cc(-c2noc(CNC(=O)c4cnn(C5CCCC5OCCF)c4)n2)n3CC(F)(F)F)[C@@H](F)C1 (stereo in doubt) [Compound 377B, N-{[3-(4-{[(3S,4R)-3-fluoro-1-methylpiperidin-4-yl]amino}-1-(2,2,2-trifluoroethyl)-1H-indol-2-yl)-1,2,4-oxadiazol-5-yl]methyl}-1-[(1R,2R)-2-(2-fluoroethoxy)cyclopentyl]-1H-pyrazole-4-carboxamide] | * (* = 0 μM ≤ SC150 < 0.1 μM)

Same assay, conditions: concentration to increase DNA binding by […], incubated at either 27° C. or 29° C. for 60 min

Row | SMILES | SC150 (μM)
20 | CC(C)(C#N)c1ccc(NCc2ccc(-c3cc4c(NC5CCS(=O)(=O)CC5)cccc4n3CC(F)(F)F)cc2)cn1 [Compound 7A, 2-(5-{[(4-{4-[(1,1-dioxo-1λ^6-thian-4-yl)amino]-1-(2,2,2-trifluoroethyl)-1H-indol-2-yl}phenyl)methyl]amino}pyridine-2-yl)-2-methylpropanenitrile] | ++ (++ = 2 μM ≤ SC150 < 5 μM)
21 | COc1cccc(-c2cc3c(NC4CCS(=O)(=O)CC4)cccc3n2CC(F)(F)F)c1 [Compound 13A, 4-{[2-(3-methoxyphenyl)-1-(2,2,2-trifluoroethyl)-1H-indol-4-yl]amino}-1λ^6-thiane-1,1-dione] | +++ (+++ = 5 μM ≤ SC150 < 10 μM)
22 | CN1CCC(Nc2cccc3c2cc(-c2ccc(CNC4CCCC4)cc2)n3CC(F)(F)F)CC1 [Compound 40A, 2-{4-[(cyclopentylamino)methyl]phenyl}-N-(1-methylpiperidin-4-yl)-1-(2,2,2-trifluoroethyl)-1H-indol-4-amine] | ++++ (++++ = 10 μM ≤ SC150 < 35 μM)
23 | CN1CC[C@H](Nc2cccc3c2cc(-c2ccc(CNC4CC4)cc2)n3CC(F)(F)F)[C@H](F)C1 (racemic) [Compound 42A, (+/−)-2-{4-[(cyclopropylamino)methyl]phenyl}-N-[(3R,4S)-3-fluoro-1-methylpiperidin-4-yl]-1-(2,2,2-trifluoroethyl)-1H-indol-4-amine] | ++++ (++++ = 10 μM ≤ SC150 < 35 μM)
